Experiments:
Assay type in all cases: functional
[1] = system: OVCAR-3; assay: Growth inhibition of human OVCAR3 cells at 10^-5 M incubated for 48 hrs by sulforhodamine B assay; settings: OVCAR-3, 48 h, read-out: GI
[2] = system: SF-295; assay: Growth inhibition of human SF295 cells at 10^-5 M incubated for 48 hrs by sulforhodamine B assay; settings: SF-295, 48 h, read-out: GI
[3] = system: A549; assay: Growth inhibition of human A549/ATCC cells at 10^-5 M incubated for 48 hrs by sulforhodamine B assay; settings: A549, 48 h, read-out: GI
[4] = system: BT-549; assay: Growth inhibition of human BT549 cells at 10^-5 M incubated for 48 hrs by sulforhodamine B assay; settings: BT-549, 48 h, read-out: GI
[5] = system: OVCAR-4; assay: Growth inhibition of human OVCAR4 cells at 10^-5 M incubated for 48 hrs by sulforhodamine B assay; settings: OVCAR-4, 48 h, read-out: GI
[6] = system: Malme-3M; assay: Growth inhibition of human MALME-3M cells at 10^-5 M incubated for 48 hrs by sulforhodamine B assay; settings: read-out: GI
[7] = system: MOLT-4; assay: Growth inhibition of human MOLT4 cells at 10^-5 M incubated for 48 hrs by sulforhodamine B assay; settings: MOLT-4, 48 h, read-out: GI
[8] = system: SNB-19; assay: Growth inhibition of human SNB19 cells at 10^-5 M incubated for 48 hrs by sulforhodamine B assay; settings: SNB-19, 48 h, read-out: GI
[9] = system: NCI-H322M; assay: Growth inhibition of human NCI-H322M cells at 10^-5 M incubated for 48 hrs by sulforhodamine B assay; settings: read-out: GI
[10] = system: PC-3; assay: Growth inhibition of human PC3 cells at 10^-5 M incubated for 48 hrs by sulforhodamine B assay; settings: PC-3, 48 h, read-out: GI
[11] = system: Hs-578T; assay: Growth inhibition of human Hs 578T cells at 10^-5 M incubated for 48 hrs by sulforhodamine B assay; settings: read-out: GI
[12] = system: HT-29; assay: Growth inhibition of human HT-29 cells at 10^-5 M incubated for 48 hrs by sulforhodamine B assay; settings: HT-29, 48 h, read-out: GI
[13] = system: SF-539; assay: Growth inhibition of human SF539 cells at 10^-5 M incubated for 48 hrs by sulforhodamine B assay; settings: SF-539, 48 h, read-out: GI
[14] = system: SW-620; assay: Growth inhibition of human SW620 cells at 10^-5 M incubated for 48 hrs by sulforhodamine B assay; settings: SW-620, 48 h, read-out: GI
[15] = system: NCI-H522; assay: Growth inhibition of human NCI-H522 cells at 10^-5 M incubated for 48 hrs by sulforhodamine B assay; settings: NCI-H522, 48 h, read-out: GI
[16] = system: SNB-75; assay: Growth inhibition of human SNB75 cells at 10^-5 M incubated for 48 hrs by sulforhodamine B assay; settings: SNB-75, 48 h, read-out: GI
[17] = system: LOX IMVI; assay: Growth inhibition of human LOXIMVI cells at 10^-5 M incubated for 48 hrs by sulforhodamine B assay; settings: read-out: GI
[18] = system: HCC 2998; assay: Growth inhibition of human HCC2998 cells at 10^-5 M incubated for 48 hrs by sulforhodamine B assay; settings: HCC 2998, 48 h, read-out: GI
[19] = system: ACHN; assay: Growth inhibition of human ACHN cells at 10^-5 M incubated for 48 hrs by sulforhodamine B assay; settings: read-out: GI
[20] = system: EKVX; assay: Growth inhibition of human EKVX cells at 10^-5 M incubated for 48 hrs by sulforhodamine B assay; settings: read-out: GI
[21] = system: DU-145; assay: Growth inhibition of human DU145 cells at 10^-5 M incubated for 48 hrs by sulforhodamine B assay; settings: DU-145, 48 h, read-out: GI
[22] = system: T47D; assay: Growth inhibition of human T47D cells at 10^-5 M incubated for 48 hrs by sulforhodamine B assay; settings: read-out: GI
[23] = system: SN12C; assay: Growth inhibition of human SN12C cells at 10^-5 M incubated for 48 hrs by sulforhodamine B assay; settings: read-out: GI
[24] = system: MDA-MB-468; assay: Growth inhibition of human MDA-MB-468 cells at 10^-5 M incubated for 48 hrs by sulforhodamine B assay; settings: MDA-MB-468, 48 h, read-out: GI
[25] = system: UACC-62; assay: Growth inhibition of human UACC62 cells at 10^-5 M incubated for 48 hrs by sulforhodamine B assay; settings: UACC-62, 48 h, read-out: GI
[26] = system: HCT-15; assay: Growth inhibition of human HCT15 cells at 10^-5 M incubated for 48 hrs by sulforhodamine B assay; settings: HCT-15, 48 h, read-out: GI
[27] = system: OVCAR-5; assay: Growth inhibition of human OVCAR5 cells at 10^-5 M incubated for 48 hrs by sulforhodamine B assay; settings: OVCAR-5, 48 h, read-out: GI
[28] = system: SK-MEL-28; assay: Growth inhibition of human SK-MEL-28 cells at 10^-5 M incubated for 48 hrs by sulforhodamine B assay; settings: SK-MEL-28, 48 h, read-out: GI
[29] = system: TK-10; assay: Growth inhibition of human TK10 cells at 10^-5 M incubated for 48 hrs by sulforhodamine B assay; settings: TK-10, 48 h, read-out: GI
[30] = system: SR; assay: Growth inhibition of human SR cells at 10^-5 M incubated for 48 hrs by sulforhodamine B assay; settings: read-out: GI
[31] = system: MDA-MB-435; assay: Growth inhibition of human MDA-MB-435 cells at 10^-5 M incubated for 48 hrs by sulforhodamine B assay; settings: MDA-MB-435, 48 h, read-out: GI
[32] = system: IGROV-1; assay: Growth inhibition of human IGROV1 cells at 10^-5 M incubated for 48 hrs by sulforhodamine B assay; settings: IGROV-1, 48 h, read-out: GI
[33] = system: CCRF-CEM; assay: Growth inhibition of human CCRF-CEM cells at 10^-5 M incubated for 48 hrs by sulforhodamine B assay; settings: read-out: GI
[34] = system: COLO 205; assay: Growth inhibition of human COLO205 cells at 10^-5 M incubated for 48 hrs by sulforhodamine B assay; settings: COLO 205, 48 h, read-out: GI
[35] = system: NCI-H226; assay: Growth inhibition of human NCI-H226 cells at 10^-5 M incubated for 48 hrs by sulforhodamine B assay; settings: NCI-H226, 48 h, read-out: GI
[36] = system: MCF7; assay: Growth inhibition of human MCF7 cells at 10^-5 M incubated for 48 hrs by sulforhodamine B assay; settings: MCF7, 48 h, read-out: GI
[37] = system: A498; assay: Growth inhibition of human A498 cells at 10^-5 M incubated for 48 hrs by sulforhodamine B assay; settings: A498, 48 h, read-out: GI
[38] = system: CAKI-1; assay: Growth inhibition of human Caki1 cells at 10^-5 M incubated for 48 hrs by sulforhodamine B assay; settings: CAKI-1, 48 h, read-out: GI
[39] = system: UACC-257; assay: Growth inhibition of human UACC257 cells at 10^-5 M incubated for 48 hrs by sulforhodamine B assay; settings: UACC-257, 48 h, read-out: GI

Structure (SMILES)	inhibition of growth at 10 µM [1]	inhibition of growth at 10 µM [2]	inhibition of growth at 10 µM [3]	inhibition of growth at 10 µM [4]	inhibition of growth at 10 µM [5]	inhibition of growth at 10 µM [6]	inhibition of growth at 10 µM [7]	inhibition of growth at 10 µM [8]	inhibition of growth at 10 µM [9]	inhibition of growth at 10 µM [10]	inhibition of growth at 10 µM [11]	inhibition of growth at 10 µM [12]	inhibition of growth at 10 µM [13]	inhibition of growth at 10 µM [14]	inhibition of growth at 10 µM [15]	inhibition of growth at 10 µM [16]	inhibition of growth at 10 µM [17]	inhibition of growth at 10 µM [18]	inhibition of growth at 10 µM [19]	inhibition of growth at 10 µM [20]	further results
O=[N+]([O-])c1cccc(C2c3sc4ccc(Cl)cc4c3N=C3NN=C(c4cccc(F)c4)N32)c1 (stereo not drawn)	-1.54%	2.31%	2.2%	-8.29%	0.57%	-3.66%	13%	-0.64%	2.83%	7.25%	1.64%	-7.53%	4.75%	-3.74%	7.14%	6.3%	0.5%	-6.34%	11.4%	14.8%	inhibition of growth at 10 µM [21]: 11.3%; inhibition of growth at 10 µM [22]: 18.1%; inhibition of growth at 10 µM [23]: 3.42%; inhibition of growth at 10 µM [24]: -20.8%; inhibition of growth at 10 µM [25]: 4.06%; inhibition of growth at 10 µM [26]: 0.97%; inhibition of growth at 10 µM [27]: -2.63%; inhibition of growth at 10 µM [28]: -15.4%; inhibition of growth at 10 µM [29]: -12.9%; inhibition of growth at 10 µM [30]: 1.04%; inhibition of growth at 10 µM [31]: -11.2%; inhibition of growth at 10 µM [32]: 21.3%; inhibition of growth at 10 µM [33]: -19.6%; inhibition of growth at 10 µM [34]: -6.34%; inhibition of growth at 10 µM [35]: 14%; inhibition of growth at 10 µM [36]: 24.4%; inhibition of growth at 10 µM [37]: 0.64%; inhibition of growth at 10 µM [38]: 21.9%; inhibition of growth at 10 µM [39]: -6.09%
N=C1Nc2c(sc3ccc(Cl)cc23)C(c2cccc([N+](=O)[O-])c2)N1 (stereo not drawn)	10.7%	-5.78%	20.4%	5.75%	-4.7%	-4.49%	21.2%	16.8%	4.7%	-10.1%	-17.4%	1.65%	1.35%	3.17%	-4.45%	-4.54%	-9.93%	9.09%	22.8%	15.1%	inhibition of growth at 10 µM [21]: 20.5%; inhibition of growth at 10 µM [22]: 1.02%; inhibition of growth at 10 µM [23]: -19.7%; inhibition of growth at 10 µM [24]: 1.02%; inhibition of growth at 10 µM [25]: 23.1%; inhibition of growth at 10 µM [26]: -4.21%; inhibition of growth at 10 µM [27]: -1.04%; inhibition of growth at 10 µM [28]: 4.08%; inhibition of growth at 10 µM [29]: 40.3%; inhibition of growth at 10 µM [30]: -3.11%; inhibition of growth at 10 µM [31]: -4.98%; inhibition of growth at 10 µM [32]: 4.94%; inhibition of growth at 10 µM [33]: 8.41%; inhibition of growth at 10 µM [34]: -31%; inhibition of growth at 10 µM [35]: 14.4%; inhibition of growth at 10 µM [36]: 10.7%; inhibition of growth at 10 µM [37]: 9.1%; inhibition of growth at 10 µM [38]: -10.8%; inhibition of growth at 10 µM [39]: 9.45%

From ChEMBL document CHEMBL4414672, “Synthesis of certain benzothieno[3,2-d]pyrimidine derivatives as a selective SIRT2 inhibitors” (Eur J Med Chem, 2020)
